Experiments:
[1] = tested on: Human Keratinocytes (HaCaT); assay: Annexin-V assay; format: cell-based; details: 48 h
Description: Cell lines: Human Keratinocytes (HaCaT); test Item (TI): IS181; Treatment regimen: treated twice (once after 24 hours)-48 hours; concentration range: 100 6 g/ml-5000 6 g/ml. […] (c) cells were treated with IS181 for 24 hours; (d) after 24 hours, cells were again treated with IS181 for 24 hours; (e) after 48 hours of first treatment, cells were stained with Annexin-V reagent and acquired on flow cytometer; (f) fold increase in apoptotic cells (early and late apoptotic) and necrotic cells was calculated with respect to untreated control cells. Positive control: Curcumin. […] (FIG. 4)

[2] = Cell viability (MTT assay) in HaCaT; format: cell-based, Human; details: human, HaCaT keratinocytes, HaCaT, 1% FBS
Description: (§1) Cell Lines/Cells: Human Keratinocytes (HaCaT); Human melanoma (SK-MEL-28); Human PBMCs. Test Item: IS181 Treatment regimen: Single addition—24 h, ^#Multiple additions (3)−72 h; Concentration range: 1 ng/ml-2 mg/ml (triplicate wells); Sera Condition: […] Method of estimation: MTT assay. […] Positive control: Triton-X-100, Doxorubicin Hydrochloride.

[3] = tested on: Human Keratinocytes (HaCaT); assay: Cell viability (MTT assay) in HaCaT; format: cell-based; details: for IC50 value / cytotoxicity: HaCaT
Description: as §1

[4] = tested on: Human endothelial cells (EA.hy 926); assay: Inhibition of endothelial cell migration (wound); format: cell-based; details: for % Inhibition of migration with respect to respective 0 h control: EA.hy926, 14 h
Description: Cell line: Human endothelial cells (EA.hy 926); test item: IS 181; treatment regimen: single addition; concentration range: 0.1 μg/ml-1 mg/ml; sera condition: medium containing 10% FBS. […] The cells were then subjected to serum starved with medium containing 1% FBS for 24 hours. 24 hours post serum starvation, the wounds (straight line) were created in the middle of the well using a sterile 200 μl pipette tip. Cells were washed twice using DMEM followed by treatment with different concentrations of IS 181 in DMEM containing 10% FBS. Images of wound were taken at 0 h and 14 h at three points in single well and distance of wound closure was measured using Image J software. End point: image analysis of cell migration of different concentrations of IS 181 treated cells at 0 hour and after 14 hours of treatment. Percentage inhibition in cell migration of different concentrations of IS 181 treated cells were calculated after 14 h of treatment with respect to respective 0 hours (FIG. 13). […] (FIGS. 14A-14B).

[5] = tested on: Human melanoma (SK-MEL-28); assay: Cell viability (MTT assay) in SK-MEL-28; format: cell-based
Description: as §1

[6] = Cell viability (MTT assay) in SK-MEL-28; format: cell-based, Human; details: human, SK-MEL-28 melanoma cells
Description: as §1

[7] = tested on: TARC; assay: TNF-α stimulated TARC secretion in HaCaT; format: cell-based, Human; details: for TARC % decrease with respect to TNF-α / TARC Conc: HaCaT + TNF-α, 24 h
Description: Effect on pro-inflammatory cytokines against TNF-α/LPS+PMA stimulation: TNF-α; IFN-γ; TARC; TSLP; IL-6; IL-8: Cell lines: Human keratinocytes (HaCaT); test item (TI); IS181; experimental steps: pre-treatment of cells with TI for 2 hours; stimulation with TNF-α: 20 ng/ml; stimulation with LPS+PMA-10 μg/ml LPS+40 ng/ml PMA; supernatant collection for cytokine analysis after 24 hours; concentration range: 0.1 μg/ml-100 μg/ml (duplicate wells); cytokines: TNF-α; IFN-γ; TARC; TSLP; IL-6; IL-8. Method of estimating cytokines: ELISA; positive control: dexamethasone.
Cell line: HaCaT (Human Keratinocytes); TI Treatment regimen: Pretreatment for 2 h; TI Concentration range: 0.1 μg/ml-100 μg/ml (duplicate wells); TNF-α stimulation: 20 ng/ml; LPS+PMA stimulation: 10 μg/ml LPS+40 ng/ml PMA; Time point for supernatants collection: 24 h; Method of estimation: ELISA; Positive control: Dexamethasone

Substance: H-WVQRVVEKFLK-OH [IS181, H-Trp-Val-Gln-Arg-Val-Val-Glu-Lys-Phe-Leu-Lys-OH]
- increase in late apoptotic cells vs untreated ([1]; 2000 μg/ml): 2.1 fold
- increase in necrotic cells vs untreated ([1]; 2000 μg/ml): 7.9 fold
- increase in early apoptotic cells vs untreated ([1]; 5000 μg/ml): 2.3 fold
- increase in late apoptotic cells vs untreated ([1]; 5000 μg/ml): 5.3 fold
- increase in necrotic cells vs untreated ([1]; 5000 μg/ml): 4.5 fold
- cytotoxicity at 24 h, 0.1 μg/ml ([2]; 24 h, 0.1 μg/ml): -1.4%
- cytotoxicity at 24 h, 0.5 μg/ml ([2]; 24 h, 0.5 μg/ml): -4.61%
- cytotoxicity at 24 h, 1 μg/ml ([2]; 24 h, 1 μg/ml): 4.88%
- cytotoxicity at 24 h, 5 μg/ml ([2]; 24 h, 5 μg/ml): 8.43%
- cytotoxicity at 24 h, 10 μg/ml ([2]; 24 h, 10 μg/ml): 5.75%
- cytotoxicity at 24 h, 50 μg/ml ([2]; 24 h, 50 μg/ml): 1.79%
- cytotoxicity at 24 h, 100 μg/ml ([2]; 24 h, 100 μg/ml): -0.58%
- cytotoxicity at 24 h, 500 μg/ml ([2]; 24 h, 500 μg/ml): 18.9%
- cytotoxicity at 24 h, 1000 μg/ml ([2]; 24 h, 1000 μg/ml): 87.8%
- cytotoxicity at 24 h, 2000 μg/ml ([2]; 24 h, 2000 μg/ml): 91.3%
- cytotoxicity at 72 h, 0.1 μg/ml ([2]; 72 h, 0.1 μg/ml): -56.2%
- cytotoxicity at 72 h, 0.5 μg/ml ([2]; 72 h, 0.5 μg/ml): -75.4%
- cytotoxicity at 72 h, 1 μg/ml ([2]; 72 h, 1 μg/ml): -66.1%
- cytotoxicity at 72 h, 5 μg/ml ([2]; 72 h, 5 μg/ml): -37.5%
- cytotoxicity at 72 h, 10 μg/ml ([2]; 72 h, 10 μg/ml): -44.5%
- cytotoxicity at 72 h, 50 μg/ml ([2]; 72 h, 50 μg/ml): -33%
- cytotoxicity at 72 h, 100 μg/ml ([2]; 72 h, 100 μg/ml): -42.5%
- cytotoxicity at 72 h, 500 μg/ml ([2]; 72 h, 500 μg/ml): 58.5%
- cytotoxicity at 72 h, 1000 μg/ml ([2]; 72 h, 1000 μg/ml): 91%
- cytotoxicity at 72 h, 2000 μg/ml ([2]; 72 h, 2000 μg/ml): 89.4%
- IC50 ([3]; 24 h): 470 µM
- Selectivity Index -IC50 (PBMC)/IC50 (HaCaT/SK-MEL-28 cells) ([3]; 24 h): 3
- selectivity of cytotoxic activity against human keratinocytes ([3]; 24 h): selective cytotoxic activity
- IC50 ([3]; 72 h): 290 µM
- Selectivity Index -IC50 (PBMC)/IC50 (HaCaT/SK-MEL-28 cells) ([3]; 72 h): 2
- IC50 value ([3]; 24 h): 670 µg/mL
- cytotoxicity ([3]; 24 h, at concentrations 2 mg/ml): 87%-91%
- IC50 value ([3]; 72 h): 420 µg/mL
- cytotoxicity ([3]; 72 h, concentrations ≥0.5 mg/ml): 58%-90%
- inhibition of migration of EA.hy926 cells ([4]; 10 μg/ml-1 mg/ml): 17%-54%
- % Inhibition of migration with respect to respective 0 h control ([4]; 0.1 μg/ml): 0%
- % Inhibition of migration with respect to respective 0 h control ([4]; 1 μg/ml): 0%
- % Inhibition of migration with respect to respective 0 h control ([4]; 10 μg/ml): 17%
- % Inhibition of migration with respect to respective 0 h control ([4]; 50 μg/ml): 34%
- % Inhibition of migration with respect to respective 0 h control ([4]; 100 μg/ml): 41%
- % Inhibition of migration with respect to respective 0 h control ([4]; 1 mg/ml): 54%
- IC50 ([5]; 24 h): > 700 µM
- IC50 value ([5]; 24 h): >1000 µg/mL
- Selectivity Index -IC50 (PBMC)/IC50 (HaCaT/SK-MEL-28 cells) ([5]; 24 h): ≤2
- IC50 ([5]; 72 h): 160 µM
- Selectivity Index -IC50 (PBMC)/IC50 (HaCaT/SK-MEL-28 cells) ([5]; 72 h): 4
- IC50 value ([5]; SK-MEL-28, 72 h): 230 µg/mL
- cytotoxicity ([5]; SK-MEL-28, 72 h, concentrations ≥0.5 mg/ml): > 90%
- cytotoxic effects ([5]; SK-MEL-28, after 24 h of treatment): no cytotoxic effects
- cytotoxicity at 24 h, 0.001 μg/ml ([6]; SK-MEL-28, 24 h, 0.001 μg/ml): -4.04%
- cytotoxicity at 24 h, 0.01 μg/ml ([6]; SK-MEL-28, 24 h, 0.01 μg/ml): -1.91%
- cytotoxicity at 24 h, 0.05 μg/ml ([6]; SK-MEL-28, 24 h, 0.05 μg/ml): 2.39%
- cytotoxicity at 24 h, 0.1 μg/ml ([6]; SK-MEL-28, 24 h, 0.1 μg/ml): -4.93%
- cytotoxicity at 24 h, 0.5 μg/ml ([6]; SK-MEL-28, 24 h, 0.5 μg/ml): -1.29%
- cytotoxicity at 24 h, 1 μg/ml ([6]; SK-MEL-28, 24 h, 1 μg/ml): -12.5%
- cytotoxicity at 24 h, 5 μg/ml ([6]; SK-MEL-28, 24 h, 5 μg/ml): -16.3%
- cytotoxicity at 24 h, 10 μg/ml ([6]; SK-MEL-28, 24 h, 10 μg/ml): -14%
- cytotoxicity at 24 h, 50 μg/ml ([6]; SK-MEL-28, 24 h, 50 μg/ml): -6.96%
- cytotoxicity at 24 h, 100 μg/ml ([6]; SK-MEL-28, 24 h, 100 μg/ml): -2.97%
- cytotoxicity at 24 h, 1000 μg/ml ([6]; SK-MEL-28, 24 h, 1000 μg/ml): -11.9%
- cytotoxicity at 72 h, 0.1 μg/ml ([6]; SK-MEL-28, 72 h, 0.1 μg/ml): -10.9%
- cytotoxicity at 72 h, 0.5 μg/ml ([6]; SK-MEL-28, 72 h, 0.5 μg/ml): -14.2%
- cytotoxicity at 72 h, 1 μg/ml ([6]; SK-MEL-28, 72 h, 1 μg/ml): -20%
- cytotoxicity at 72 h, 5 μg/ml ([6]; SK-MEL-28, 72 h, 5 μg/ml): 9.03%
- cytotoxicity at 72 h, 10 μg/ml ([6]; SK-MEL-28, 72 h, 10 μg/ml): 6.16%
- cytotoxicity at 72 h, 50 μg/ml ([6]; SK-MEL-28, 72 h, 50 μg/ml): -4.36%
- cytotoxicity at 72 h, 100 μg/ml ([6]; SK-MEL-28, 72 h, 100 μg/ml): 5.78%
- cytotoxicity at 72 h, 500 μg/ml ([6]; SK-MEL-28, 72 h, 500 μg/ml): 94%
- cytotoxicity at 72 h, 1000 μg/ml ([6]; SK-MEL-28, 72 h, 1000 μg/ml): 91%
- cytotoxicity at 72 h, 2000 μg/ml ([6]; SK-MEL-28, 72 h, 2000 μg/ml): 92%
- TARC inhibition ([7]; HaCaT): good extent of IFN-γ and TARC inhibition
- TARC % decrease with respect to TNF-α ([7]; 0.1 μg/ml): 28.6%
- TARC Conc ([7]; 0.1 μg/ml): 43.2 pg/mL
- TARC % decrease with respect to TNF-α ([7]; 1 μg/ml): 11.3%
- TARC Conc ([7]; 1 μg/ml): 53.6 pg/mL
- TARC % decrease with respect to TNF-α ([7]; 5 μg/ml): 1.5%
- TARC Conc ([7]; 5 μg/ml): 59.5 pg/mL
- TARC % decrease with respect to TNF-α ([7]; 10 μg/ml): 5.3%
- TARC Conc ([7]; 10 μg/ml): 57.3 pg/mL
- TARC % decrease with respect to TNF-α ([7]; 100 μg/ml): −22.6%
- TARC Conc ([7]; 100 μg/ml): 74.1 pg/mL

Source: patent publication US10538561B2, “Peptide for treating inflammatory diseases” (priority 2015, dated 2020)
